Reference: patent publication US20230372335A1, “TREATMENT OF COGNITIVE IMPAIRMENT WITH A CNS-PENETRANT sGC STIMULATOR” (Cyclerion Therapeutics, Inc., priority 2020, published 2023)
“Also recorded” adds a separate entry of the source.

Assays:
[1] = system: rodents; conditions: pre-clinical models; cited from earlier work
[2] = system: healthy elderly participants; test: Saccadic eye movements (SEM), NeuroCart, NCT04240158; assay type: in vivo, human; conditions: 15 mg oral once daily
Procedure: In this trial, SEMs were recorded at different times. Recording and analysis of SEMs were conducted with a microcomputer-based system for sampling and analysis of eye movements. The program for signal collection and the AD-converter was from Cambridge Electronic Design (CED Ltd., Cambridge, UK), the amplification by Grass (Grass-Telefactor, An Astro-Med, Inc. Product Group, Braintree, MA, USA) and the sampling and analysis scripts were developed at the CHDR (Leiden, the Netherlands). Disposable silver-silver chloride electrodes (Ambu Blue Sensor N) were applied on the forehead and beside the lateral canthi of both eyes of the participant for registration of the electro-oculographic signals. Skin resistance was reduced to less than 5 kOhm before measurements. […] SEMs were recorded for stimulus amplitudes of approximately 15 degrees to either side. Fifteen saccades were recorded with interstimulus intervals varying randomly between 3 and 6 seconds. […] Saccadic inaccuracy was calculated as the absolute value of the difference between the stimulus angle and the corresponding saccade, expressed as a percentage of the stimulus angle. SEMs were recorded in a training session at screening and during each Neurocart session (on day 1 and 15 of each treatment period at 2 hours pre-dose; on day 15 of each treatment period at 2, 3, and 6 hours post-dose). […]

[3] = Plasma and CSF concentrations in NCT03856827 trial; assay type: in vivo, human; conditions: total oral daily dose of 10 mg
[4] = system: pre-clinical models; conditions: cited from earlier work
[5] = system: rats; conditions: cited from earlier work
[6] = system: healthy subjects aged 18 to 62; test: EEG in Phase I clinical trial NCT03856827; assay type: in vivo, human
Excerpt: Nonclinical pharmacology and toxicology data supported conducting clinical studies of Compound Ito assess its safety, tolerability, pharmacokinetic (PK), and pharmacodynamics (PD) in humans. In a Phase I clinical trial (NCT03856827) changes were also observed in the brains of healthy subjects aged 18 to 62 by EEG.

[7] = system: healthy elderly participants; test: Safety and tolerability (adverse events, blood pressure), NCT04240158; assay type: in vivo, human
Procedure: Evaluations of systolic and diastolic blood pressure, pulse rate, respiratory rate, and temperature were performed throughout the study. Pulse and blood pressure were taken after the participant had rested quietly for 5 minutes in supine position. Automated oscillometric blood pressures and pulse rate were measured using a Dash 3000, Dash 4000, Dynamap 400, or Dynamap ProCare 400.
(§1) One dosage regimen was studied in this clinical trial. For subjects receiving IW-6463 during the given dosing period, IW-6463 tablets were administered orally at a 15-mg total once-daily dose for. For subjects receiving placebo during the given dosing period, placebo tablets to match IW-6463 tablets were used. For Cohort 1, the 15 mg total oral daily dose was selected based on emerging data from the Phase 1 study NCT03856827, pre-clinical qEEG results, as well as multispecies PK parameters. For Cohort 2, in addition to the those data. the emerging data from Cohort 1 of this study supported selection of the 15 mg total oral daily dose.
The safety population is defined as all participants who were randomized and received at least 1 dose of study drug.

[8] = CSF concentration of study drug (pharmacokinetics), NCT04240158; assay type: in vivo, human
Procedure: as §1
The PK analysis population is defined as all participants who were randomized, received at least 1 dose of study drug, and have at least 1 measurable drug concentration of Compound 1 in collected samples.

[9] = system: healthy elderly participants; test: N200 (MMN) auditory event-related potential by EEG, NCT04240158; assay type: in vivo, human; conditions: for ERP N200 amplitude: vs placebo or pre-treatment (FIG. 3); for N200 latency response vs age: subjects older than 70 vs 65-69 years old (FIG. 4, FIG. 8)
Procedure: In P300 and N200 ERP studies, participants were seated wearing the EEG cap and headphones and were instructed to sit still and relax. During the task, participants were presented with auditory tones. Participants were instructed to pay attention to the tones and press a response-button when they heard an infrequent/deviant tone. A total of 500 tones were presented over […], of which 400 were presented as frequent stimuli and 100 as deviant/infrequent stimuli. […] The first 5 trials were frequent tones and there were at least 2 frequent tones between 2 deviant/infrequent tones. The frequent and infrequent tones were 150 ms tones of 500 Hz and 1000 Hz at a sound pressure level of 75 dB, respectively. All tones has a 5 ms rise and fall time. Tones were presented at a fixed rate of 1 Hz.
(§2) This single-center double-blind, randomized, placebo-controlled, two-way, cross-over study evaluated a single dose level of IW-6463 compared to placebo. Subjects (male and female) were enrolled into 2 pre-defined, staggered cohorts (Cohort 1 and Cohort 2). The dose selected for both cohorts was the same but the start of enrollment within each cohort was different. This was based upon the availability of preliminary data from the previously started Phase 1 study NCT03856827 in healthy subjects and the emerging safety profile for that study from which a potential different second dose was being considered, but finally was not selected.
as §1

[10] = system: healthy elderly participants; test: Resting-state EEG power spectra, healthy elderly study NCT04240158; assay type: in vivo, human
Procedure: Resting-state EEG recordings with open and closed eyes for 5 min in each eye state were performed. Each recording employed alternating periods with eyes open and closed with a duration of 64-seconds for each period. Participants faced a featureless wall and were instructed not to stare, not to move their head and eyes, and to suppress eye blinks.
An EEG cap with electrodes at the Fz, Cz, Pz, and Oz positions (referring to frontal, central, parietal, and occipital regions at the midline, respectively) was used to record signals. Analyses of EEG-power spectra signals were carried out at the following frequency bands: • Delta-1-4 Hz (typically associated with sleep), Theta-4-7.5 Hz (associated with waking/falling asleep, some association with cognition), Alpha-8-12 Hz (associated with passive wakefulness, and with cognitive processing), Beta-12-25 Hz (associated with alertness and concentration) and Gamma-25-45 Hz (associated with higher cognitive function).
as §2, §1

[11] = system: CSF neuroinflammatory markers; test: Exploratory CSF biomarker analysis, NCT04240158; assay type: in vivo, human; conditions: after two weeks of treatment
Excerpt: Biomarkers measured in the CSF included: neurofilament light chain (NF-L) and cGMP. Other biomarkers measured in CSF include A2M, C3, TIMP1, PAI1 MCP1, PARC (CCL18), MMP3 and TNFR2.

[12] = safety population, 15 mg oral once daily up to 15 days
[13] = healthy elderly, 15 mg oral once daily
[14] = healthy elderly, 15 mg oral once daily, Day 15

Compound: Fc1ccccc1Cc1nc(-c2nc(C(F)(F)F)n[nH]2)cn2ccnc12 [Compound I]
- activation of brain regions by fMRI-BOLD [1]: activation of subcortical brain structures relevant to cognition
- cerebral blood flow (CBF) [1]: increased cerebral blood flow
- LS mean difference in change from baseline for saccadic peak velocity vs placebo (95% CI) ([2]; day 15): 28.53 (−2.76, 59.83)
- LS mean difference in change from baseline for saccadic latency (reaction time) vs placebo ([2]; day 15, p=0.0216): -6.58 ms
- mean plasma and CSF concentrations vs threshold for pharmacological activity in the brain [3]: exceed the threshold
- effects on memory and learning [4]: displaying effects on memory and learning
- effects on neuroinflammation [4]: positive effects on neuroinflammation
- neuroprotective properties [4]: displayed neuroprotective properties
- qEEG gamma power in combination with donepezil ([5]; 10 mg/kg oral plus 1 mg/kg donepezil, 1-2 hours post-dose): further increased
- qEEG gamma oscillations / gamma power compared to vehicle dosing ([5]; oral suspension): increased gamma oscillations
- qEEG gamma power ([5]; orally at 10 mg/kg): increased gamma power
- alpha power compared to placebo ([6]; NCT03856827, day 14, across all dosage levels tested): Improvements in alpha power
- ERP P300 amplitude ([6]; healthy subjects aged 18 to 62, NCT03856827): increase in amplitude with increasing dose level
- headache (most commonly reported CNS event) rate ([7]; IW-6463 vs placebo): rates were similar between treatments
- AE reports of syncope, hypotension or other hemodynamic events [7, 12]: no AE reports of syncope, hypotension or other events potentially related to changes in hemodynamics
- blood pressure measurements below the normal range [7, 12]: no blood pressure measurements reported below the normal range
- concentration at 5 h ([8]; human, CSF, 15 mg oral once daily, 5-hrs post last dose): 77 nM
- CSF concentration relative to threshold expected for pharmacological activity in the brain ([8]; threshold determined from preclinical models): 2-3 times
- magnitude of improvement as age related change in N200 latency ([9]; at older ages, after two weeks of treatment): 10 year
- ERP N200 latency ([9]; healthy elderly, 15 mg oral once daily, day 14, compared with placebo, p=0.02): significantly shorter
- ERP N200 amplitude [9, 13]: larger N200 negative amplitudes were observed with increasing age
- ERP N200 amplitude ([9]; healthy elderly, 15 mg oral once daily, listed as IW-6463): increased the amplitude
- N200 latency response vs age [9]: smaller latency increases with increasing age; also recorded: greater in subjects older than 70 years old
- N200 latency response vs age ([9]; listed as IW-6463): greater in subjects older than 70 years old
- mean alpha band power relative to placebo ([10]; Day 15 prior to last dose and 2, 3, 6 hours after last dose (FIG. 1)): increased mean alpha band power relative to placebo at all post-baseline timepoints
- EEG (anterior) gamma power, change from baseline [10, 13]: 1 dB
- EEG (anterior) gamma power, increase from baseline [10, 13]: 45%
- EEG (anterior) alpha power, change from baseline [10, 14]: 0.6 dB
- EEG (anterior) alpha power, increase from baseline [10, 14]: 17.5%
- EEG (anterior) alpha power, treatment effect vs placebo [10, 14]: 13%
- EEG (posterior) alpha power, change relative to baseline [10, 14]: 0.5 dB
- EEG (posterior) alpha power, increase from baseline [10, 14]: 13.7%
- EEG (posterior) alpha power, treatment effect vs placebo [10, 14]: 17%
- CSF concentration of Alpha 2 macroglobulin (A2M) vs placebo ([11]; nominal p 0.013 (FIG. 9)): potentially important reductions in the concentrations
- CSF concentration of complement C3 (C3) vs placebo ([11]; nominal p 0.039 (FIG. 9)): potentially important reductions in the concentrations
